Source: publication PMC12770539 (Scientific Reports, 2025)

How the values were obtained:
[1] = cited from earlier work
[2] = TGA analysis; type: physicochemical
[3] = oral administration, 30 mg/kg dose; cited from earlier work
[4] = cited from earlier work; remark: listed apart in the source

SMILES: C[C@@H]1O[C@@H]1P(=O)(O)O [Fosfomycin calcium]
- absorption ([1]; oral): 10–30%

SMILES: C[C@@H]1O[C@@H]1P(=O)(O)O.NC(CO)(CO)CO [Fosfomycin tromethamine]
- elimination half-life [1]: 2 h
- serum concentration (Cmax) ([1]; single 3-gm dose): 26.1 (± 9.1) µg/mL

SMILES: C[C@@H]1O[C@@H]1P(=O)(O)O [Fosfomycin]
- temperature at which degradation initiates (TGA) [2]: 150 °C
- temperature range of marked weight loss (TGA) [2]: 200–400 °C
- calculated Tmax [3]: 3.00 ± 0.00 h
- mean peak concentration (Cmax) [3]: 3600 ± 960 ng/mL

SMILES: Cc1ncc([N+](=O)[O-])n1CCO [Metronidazole]
- local irritation, share of users ([4]; vaginal administration): 10–15%
- cure rate for bacterial vaginosis ([4]; vaginal suppositories, within 7 days): ~80%
